From patent US20140335050A1, “METHODS, COMPOSITIONS, AND KITS FOR THE TREATMENT OF CANCER” (The General Hospital Corporation, priority 2011, published 2014)

Tests used:
[1] = tested on: MU89 melanoma cell line; assay: Antibody staining and flow cytometry (intracellular Melan-A/MART-1, gp100, TRP-2; surface MHC Class I/II); assay type: cell-based, human
Experimental: (§1) Cells were fixed with 1% formaldehyde, permeabilized with 0.1% saponin, stained with monoclonal antibodies to melanocyte antigens. Antibodies were obtained with specificity for: MART-1 from Vector Labs (Burlingame, Calif.); gp100 HMB45 from DakoCytomation (Carpinteria, Calif.) and then visualized with goat anti-mouse FITC-conjugated secondary antibody from Invitrogen (Fredrick, Md.). The level of EGFP was determined by flow cytometry of unfixed cells that were washed and resuspended in 1×PBS.
(§2) Cells were plated at a density of 1×10^5 in 1 ml of medium in a 24-well plate and cultured for varying times as indicated in results. […] After incubation, cells were collected by trypsinization and then evaluated by flow cytometry.
(§3) Intracellular staining and flow cytometric analyses of cytoplasmic Melan-A/MART-1, and gp100 expression were performed as described previously. Cells were fixed with 1% formaldehyde, permeabilized with 0.1% saponin, stained with monoclonal antibodies to melanocyte antigens. Antibodies were obtained with specificity for: Melan-A/MART-1 from Vector Labs (Burlingame, Calif.); gp100/HMB45 from DakoCytomation (Carpinteria, Calif.) and then visualized with goat anti-mouse FITC-conjugated secondary antibody from Invitrogen (Frederick, Md.). The level of EGFP was determined by flow cytometry of unfixed cells washed and resuspended in 1×PBS. Surface staining of MHC Class I was carried out using the antibody W6/32 on cells harvested with Cell Stripper from MediaTech Inc. (Manassas, Va.) and carried out on ice.
(§4) Cell were seeded at 1×10^6 cells in a T25 flask with 10 ml of media for the 4 day IFN-beta pre-treatments. Cells were then harvested and plated in 24 well plate at 1×10^5 cells per well in 1 ml of media for 3 day treatments.
(§5) For surface staining of HLA Class I and II antigens, cells were harvested using CellStripper™ from Mediatech (Manassas, Va.). All staining steps were performed on ice. Following a first incubation with antibody to Class I (W6/32) or Class II (L243) for 30 minutes. Stained cells were washed twice with cold PBS and then stained with a goat anti-mouse FITC secondary antibody to allow for quantitative analysis by flow cytometry. For evaluation of cytoplasmic antigens, including Melan-A/MART-1 and gp100, cells were first fixed in paraformaldehyde and permeabilized with saponin as previously described. Staining for cytoplasmic antigens was carried out at room temperature (22° C.).

[2] = tested on: A375 melanoma cell line; assay: Antibody staining and flow cytometry (intracellular Melan-A/MART-1, gp100, TRP-2; surface MHC Class I); assay type: cell-based, human
Experimental: as §1, §2, §3, §4, §5

[3] = tested on: MUX melanoma cell line; assay: as above; assay type: cell-based, human
Experimental: as §1, §2, §3, §4, §5

[4] = tested on: B16 murine melanoma cell line; assay: Antibody staining and flow cytometry (intracellular gp100, TRP-2; surface Class I with H2kb antibody); assay type: cell-based, mouse; details: 3 days, 17-AEP 0.5, PU-H71 0.15, CCT018159 2.5 μg/ml
Source text: To further evaluate enhancement of immune recognition of cancer cells by inhibition of Hsp90 function, it was shown that a total of twelve different Hsp90 inhibitors were active in several molecular and cellular assays on a series of cell lines, including eleven human melanomas, the murine B16 melanoma, and two human gliomas. […] The melanomas all express varying levels of differentiation antigens Melan-A/MART-1, gp100 and TRP-2, as well as the MHC-Class I antigen (as evidenced by W6/32 antibody staining) that is required for T cell recognition of the tumor cells. Each of these antigens is enhanced by all of the Hsp90 inhibitors. […] Similar to the human counterparts, the B16 mouse tumor also can be induced to express enhanced antigen levels upon 3-day exposure to each of the Hsp90 inhibitors (Table 16). The mouse H-2 Class I antigen is likewise induced by the Hsp90 inhibitors.
General culture conditions for cell propagation and the origins of most of the melanoma cell lines have been previously described. Melanoma cells were cultured in DMEM with 10% FBS. The glioma cell lines U87 MG and U118 MG were obtained from the American Type Culture Collection (ATCC). The B16 murine melanoma cell line was provided by Dr. Andrew Hurwitz and has been previously described. The T cell receptor (TCR)-negative Jurkat T cell line derivative J.RT3-T3.5 was obtained from ATCC. The construction of the J.RT3-T3.5 cell line expressing a Melan-A/MART-1 specific TCR has been described previously. T cells were cultured in RPMI with 10% FBS. IFN-beta-1a (Avonex) was obtained from Biogen-Idec (Cambridge, Mass.) and reconstituted according to the manufacturer's recommendations. The Hsp90 inhibitor radicicol was purchased from A.G. Scientific (San Diego, Calif.). Novobiocin was ordered from BioMol (Plymouth Meeting, Pa.). 17-DMAG was obtained from LC laboratories (Woburn, Mass.). 17-AEP-AP was purchased from InVivoGen (San Diego, Calif.). […] Gedunin, CCT018159, and celastrol were purchased from Tocris (Ellisville, Mo.). Selleck Chemicals (Houston, Tex.) provided NVP-AUY922 and BIIB021.
Cells were plated at a density of 1×10^5 in 1 ml of medium in a 24-well plate and cultured for varying times as indicated in results. Typically, 3 days of culture in the presence of Hsp90 inhibitors was optimal for the functional studies performed. After incubation, cells were collected by trypsinization and then evaluated by flow cytometry.
as §3

[5] = MU89 (BRAF M/WT, NRAS WT), 3 days, 17-AEP 0.50, CCT018159 10.00, PU-H71 0.30 μg/ml
[6] = MU89, 3 days, IFN-beta 5000 Units/ml, 17-AEP 1.0, PU-H71 0.3, CCT018159 10.0 μg/ml
[7] = 3 days, IFN-beta 5000 Units/ml, 17-AEP 0.5, PU-H71 0.15, CCT018159 2.5 μg/ml
[8] = MUX (BRAF M/M, NRAS WT), 3 days, 17-AEP 0.50, CCT018159 5.00, PU-H71 0.30 μg/ml
[9] = MUX, 3 days, IFN-beta 5000 Units/ml, 17-AEP 1.0, PU-H71 0.3, CCT018159 10.0 μg/ml

How did the “HMB45, level of induction relative to untreated control cells” value [1, 5] turn out when CCc1cc(-c2n[nH]c(C)c2-c2ccc3c(c2)OCCO3)c(O)cc1O [CCT018159] was run?
The value was 3.92.

What about the “MART-1, level of induction relative to untreated control cells” value [1, 5] of the same molecule?
The value was 3.22.

And the “Class I, fold increase relative to untreated control” value [1, 6]?
The value was 4.2 fold.

And the “Class I, geometric mean of surface staining (W6/32)” value [1, 6]?
Its value is 75.

What about the “MART-1, fold increase relative to untreated control” value [1, 6] of the same molecule?
Its value is 3.0 fold.

What about the “MART-1, geometric mean of intracellular staining” value (“MART-1, geometric mean” below) [1, 6] of the same molecule?
Its value is 99.

And the “TRP-2, fold increase relative to untreated control” value [1, 6]?
Its value is 2.7 fold.

What about the “TRP-2, geometric mean of intracellular staining” value (from here on “TRP-2, geometric mean”) [1, 6] of the same molecule?
The value was 252.

What about the “gp100, fold increase relative to untreated control” value [1, 6] of the same molecule?
The value was 2.2 fold.

What about the “gp100, geometric mean of intracellular staining” value (shortened to “gp100, geometric mean”) [1, 6] of the same molecule?
The value was 273.

And the “MHC Class I, geometric mean of surface staining (W6/32)” value (“MHC Class I, geometric mean” below) ([1]; MU89, 4 day IFN-β pre-treatment (5000 Units/ml), then 3 days with fresh IFN-β and the labelled HSP90 inhibitor (label IFN-β: no inhibitor), 17-AEP 1, PU-H71 0.3, CCT018159 10 mg/ml)?
The value was 281.

What about the “MHC Class I, geometric mean” value ([1]; MU89, 4 day IFN-β pre-treatment (5000 Units/ml), then 3 days without IFN-β with the labelled HSP90 inhibitor (label IFN-β: no inhibitor), 17-AEP 1, PU-H71 0.3, CCT018159 10 mg/ml) of the same molecule?
The value was 232.

And the “MHC Class I, geometric mean” value ([1]; MU89, single agent for 3 days, no IFN-β pre-treatment, IFN-β 5000 Units/ml)?
Its value is 73.

And the “MHC Class I, geometric mean” value ([1]; MU89, three days, IFN-β 5000 Units/ml)?
Its value is 75.

What about the “Class I, fold increase relative to untreated control” value [2, 7] of the same molecule?
The value was 1.9 fold.

What about the “Class I, geometric mean of surface staining (W6/32)” value [2, 7] of the same molecule?
The value was 70.

And the “MART-1, fold increase relative to untreated control” value [2, 7]?
The value was 2.2 fold.

What about the “MART-1, geometric mean” value [2, 7] of the same molecule?
Its value is 13.

And the “TRP-2, fold increase relative to untreated control” value [2, 7]?
The value was 2.3 fold.

What about the “TRP-2, geometric mean” value [2, 7] of the same molecule?
Its value is 37.

What about the “gp100, fold increase relative to untreated control” value [2, 7] of the same molecule?
The value was 2.1 fold.

What about the “gp100, geometric mean” value [2, 7] of the same molecule?
The value was 32.

What about the “MHC Class I, geometric mean” value ([2]; 4 day IFN-β pre-treatment (5000 Units/ml), then 3 days with fresh IFN-β and the labelled HSP90 inhibitor (label IFN-β: no inhibitor), 17-AEP 0.5, PU-H71 0.15, CCT018159 2.5) of the same molecule?
Its value is 181.

And the “MHC Class I, geometric mean” value ([2]; 4 day IFN-β pre-treatment (5000 Units/ml), then 3 days without IFN-β with the labelled HSP90 inhibitor (label IFN-β: no inhibitor), 17-AEP 0.5, PU-H71 0.15, CCT018159 2.5)?
The value was 139.

What about the “MHC Class I, geometric mean” value ([2]; single agent for 3 days, no IFN-β pre-treatment, IFN-β 5000 Units/ml, 17-AEP 0.5, PU-H71 […], CCT018159 2.5) of the same molecule?
The value was 119.

What about the “MHC Class I, geometric mean” value ([2]; three days, IFN-β 5000 Units/ml, 17-AEP 0.5, PU-H71 […], CCT018159 2.5) of the same molecule?
The value was 70.

And the “HMB45, level of induction relative to untreated control cells” value [3, 8]?
The value was 1.89.

What about the “MART-1, level of induction relative to untreated control cells” value [3, 8] of the same molecule?
Its value is 1.64.

And the “Class I, fold increase relative to untreated control” value [3, 9]?
The value was 1.7 fold.

And the “Class I, geometric mean of surface staining (W6/32)” value [3, 9]?
Its value is 174.

What about the “MART-1, fold increase relative to untreated control” value [3, 9] of the same molecule?
Its value is 1.7 fold.

And the “MART-1, geometric mean” value [3, 9]?
The value was 22.

What about the “TRP-2, fold increase relative to untreated control” value [3, 9] of the same molecule?
Its value is 1.0 fold.

What about the “TRP-2, geometric mean” value [3, 9] of the same molecule?
Its value is 40.

What about the “gp100, fold increase relative to untreated control” value [3, 9] of the same molecule?
The value was 1.5 fold.

And the “gp100, geometric mean” value [3, 9]?
Its value is 40.

What about the “MHC Class I, geometric mean” value ([3]; MUX, 4 day IFN-β pre-treatment (5000 Units/ml), then 3 days with fresh IFN-β and the labelled HSP90 inhibitor (label IFN-β: no inhibitor), 17-AEP 1, PU-H71 0.3, CCT018159 10 mg/ml) of the same molecule?
The value was 599.

And the “MHC Class I, geometric mean” value ([3]; MUX, 4 day IFN-β pre-treatment (5000 Units/ml), then 3 days without IFN-β with the labelled HSP90 inhibitor (label IFN-β: no inhibitor), 17-AEP 1, PU-H71 0.3, CCT018159 10 mg/ml)?
The value was 397.

And the “MHC Class I, geometric mean” value ([3]; MUX, single agent for 3 days, no IFN-β pre-treatment, IFN-β 5000 Units/ml, 17-AEP 1 μg/ml, PU-H71 0.3 μg/ml, CCT018159 10 μg/ml)?
Its value is 265.

What about the “MHC Class I, geometric mean” value ([3]; MUX, three days, IFN-β 5000 Units/ml, 17-AEP 1 μg/ml, PU-H71 0.3 μg/ml, CCT018159 10 μg/ml) of the same molecule?
Its value is 174.

What about the “Class I, fold increase relative to untreated control” value [4] of the same molecule?
The value was 6.8 fold.

What about the “Class I, geometric mean of surface staining (H2kb)” value [4] of the same molecule?
Its value is 16.

And the “TRP-2, fold increase relative to untreated control” value [4]?
Its value is 3.9 fold.

What about the “TRP-2, geometric mean” value [4] of the same molecule?
Its value is 364.

What about the “gp100, fold increase relative to untreated control” value [4] of the same molecule?
Its value is 5.2 fold.

And the “gp100, geometric mean” value [4]?
Its value is 414.
